In paper PMC8740726 (Proceedings of the National Academy of Sciences of the …, 2021):

What was measured:
[1] = biological target: T1, DPS (deoxypodophyllotoxin synthase) (Sinopodophyllum hexandrum, UniProt A0A0N9HQ36); conditions: coproduct at Fe active site, with Fe and (±)-yatein; pH 7.5
[2] = biological target: T1, DPS (deoxypodophyllotoxin synthase); conditions: co-substrate; Fe bound, bidentate, offline mode; pH 8.5

T1 sequence (A0A0N9HQ36 whole entry): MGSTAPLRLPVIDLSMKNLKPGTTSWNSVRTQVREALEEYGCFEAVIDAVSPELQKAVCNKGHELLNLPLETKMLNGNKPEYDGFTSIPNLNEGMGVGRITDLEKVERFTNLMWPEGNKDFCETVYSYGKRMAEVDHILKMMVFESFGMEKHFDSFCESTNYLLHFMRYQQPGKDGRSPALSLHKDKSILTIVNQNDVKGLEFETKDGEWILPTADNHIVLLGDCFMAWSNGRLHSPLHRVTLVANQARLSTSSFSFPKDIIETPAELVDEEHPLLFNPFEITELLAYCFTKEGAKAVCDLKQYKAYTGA

Structure (SMILES)	X-ray crystal structure, 2.05 A [1]	X-ray crystal structure, 2.09 A [2]
O=C(O)CCC(=O)O [succinate]	The substrate (−)-6a and the coproduct succinate are shown in stick representation	
O=C(O)CCC(=O)C(=O)O [2OG]		Overall structure of the DPS•Fe•2OG ternary complex (Protein Data Bank identification: 7E37)
